Test results as given in paper PMC8981703 (BMC Medicine, 2022).

What was measured:
clinical = type: in vivo, human; conditions: plasma
Procedure: (§1) Response assessment was performed every 28 days on day 1 of each cycle. Adverse event (AE) was assessed using the NCI Common Terminology Criteria for Adverse Events (CTCAE) version 4.03. […] Plasma concentrations were determined at the following distinct time points: pre-dose, 0.5 h, 1 h, 1.5 h, 2 h, 3 h, 4 h, 5 h, 6 h, 8 h, 10 h, 24 h, and 48 h. Pharmacokinetics ethnicity sensitivity analysis was performed to evaluate the potential impact of ethnic factors on the acceptability and difference in the data of Chinese and western patients.
PK parameters were obtained by analyzing adequate plasma drug concentration data and calculated using the NCA model with Phoenix WinNonlin v8.3.1. The descriptive statistics of PK parameters were summarized using SAS 9.4.

[1] = tested on: Chinese patients with RRMM; experiment: MARCH: safety (TEAEs, CTCAE version 4.03), exposure, dose modification, disposition; type: in vivo
Procedure: as §1
Patients who received at least 1 dose of study treatment (modified intent-to-treat [mITT]/safety population) were used for efficacy and safety analysis. Demographics, baseline disease characteristics, and prior anti-MM therapies were summarized for the mITT populations. For the primary analysis of ORR, the primary endpoint, the sample size of 82 patients would provide 80% power to detect a statistical significance with the target ORR of 28% against the threshold ORR (i.e., null hypothesis) of 15% (one-sided α=0.025); statistical significance would be declared if the lower bound of the 95% confidence interval (CI) would be greater than 15%. Time to event endpoints including PFS, OS, and DOR were analyzed using the Kaplan-Meier method.

O=C(/C=C\n1cnc(-c2cc(C(F)(F)F)cc(C(F)(F)F)c2)n1)NNc1cnccn1 [selinexor, Selinexor]
Tmax (clinical; human, po, 80 mg, single dose selinexor 80 mg oral, C1D1, read-out: median T max): 2.88 h
AUC(0-t) (clinical; human, po, 80 mg, read-out: mean AUC0–48h): 5800 ng·h/mL
Cmax (clinical; human, po, 80 mg, read-out: mean C max): 862 ng/mL
half-life (clinical; human, po, 80 mg, read-out: mean t 1/2 (converted)): 6 h
median T max (clinical; single dose selinexor 80 mg oral, C1D1): 3 h
median number of dose reductions ([1]; among the patients with dose reductions): 2
median time to the first dose reduction ([1]; in vivo): 22.0 days
patients with a reduction to 80 mg weekly ([1]; in vivo): 20.7%
patients with a reduction to 100–120 mg weekly ([1]; in vivo): 40.2%
patients with dose interruptions ([1]; in vivo): 75.6%
patients with dose reductions ([1]; in vivo): 84.1%
